In brackets after ≈: the same amount, converted by molar mass. Values belong to the compound of their own block, whether it stands above or below them.
Experiments:
Test in all cases: ≥ marks a high value that may be exact or a test limit, other limits are often not marked, values filed in µg/mL are converted to µM
[1] = test system: Staphylococcus epidermidis NBRC 12993
[2] = test system: Candida viswanathii NBRC 10321
[3] = test system: Micrococcus luteus NBRC 3333
[4] = test system: Aspergillus oryzae NBRC 100959
[5] = test system: Escherichia coli NBRC 3972
[6] = test system: Enterococcus faecalis ATCC 29212
[7] = test system: Staphylococcus aureus
[8] = test system: Salmonella enterica subsp. enterica serovar Pullorum C79-13
[9] = test system: Staphylococcus aureus ATCC 43300
[10] = test system: Escherichia coli UB1005
[11] = test system: Streptococcus agalactiae
[12] = test system: Salmonella enterica subsp. enterica serovar Choleraesuis CVCC 503
[13] = test system: Salmonella enterica subsp. enterica serovar Typhimurium C77-31
[14] = test system: Staphylococcus aureus ATCC 29213
[15] = test system: Staphylococcus epidermidis ATCC 12228
[16] = test system: Salmonella enterica subsp. enterica serovar Typhimurium ATCC 14028
[17] = test system: Streptococcus pyogenes ATCC 19615
[18] = test system: Salmonella enterica subsp. enterica serovar Typhimurium ATCC 14028s
[19] = test system: Streptococcus pneumoniae ATCC 49619
[20] = test system: Pseudomonas aeruginosa K799
[21] = test system: Streptococcus mitis
[22] = test system: Listeria monocytogenes
[23] = test system: Corynebacterium xerosis
[24] = test system: Staphylococcus aureus ATCC 25923
[25] = test system: Staphylococcus epidermidis C621
[26] = test system: Enterococcus faecalis
[27] = test system: Staphylococcus aureus SAP 0017
[28] = test system: Pseudomonas aeruginosa H103
[29] = test system: Staphylococcus aureus K147
[30] = test system: Salmonella typhimurium C610
[31] = test system: Staphylococcus epidermidis
[32] = test system: Escherichia coli O111:B4
[33] = test system: Bacillus subtilis
[34] = test system: Pseudomonas aeruginosa ATCC 27853
[35] = test system: Klebsiella pneumoniae
[36] = test system: Enterococcus casseliflavus ATCC 700327
[37] = test system: Escherichia coli ATCC 25922
[38] = test system: Klebsiella pneumoniae ATCC 13883

Structure (SMILES): CC[C@H](C)[C@H](N)C(=O)N[C@@H](CS)C(=O)N[C@@H](CCCN=C(N)N)C(=O)N[C@@H](CCCCN)C(=O)N1CCC[C@H]1C(=O)N[C@H](C(=O)N[C@H](C(=O)N[C@@H](CS)C(=O)N[C@@H](CCCN=C(N)N)C(=O)N[C@@H](CCCCN)C(=O)N1CCC[C@H]1C(=O)N[C@H](C(=O)N[C@H](C(=O)N[C@@H](CS)C(=O)N[C@@H](CCCN=C(N)N)C(=O)N[C@@H](CCCCN)C(=O)N1CCC[C@H]1C(=O)N[C@H](C(=O)N[C@H](C(=O)N[C@@H](CS)C(=O)N[C@@H](CCCN=C(N)N)C(=O)N[C@@H](CCCCN)C(=O)N1CCC[C@H]1C(=O)N[C@H](C(N)=O)[C@@H](C)CC)[C@@H](C)CC)[C@@H](C)CC)[C@@H](C)CC)[C@@H](C)CC)[C@@H](C)CC)[C@@H](C)CC [ICRKPIICRKPIICRKPIICRKPI]
- MIC [6]: > 64 µM
- MIC [7]: > 64 µM
- MIC [8]: 16 µM (≈ 45.8 µg/mL)
- MIC [9]: > 64 µM
- MIC [10]: 2 µM (≈ 5.72 µg/mL)
- MIC [11]: ≥ 64 µM
- MIC [12]: 8 µM (≈ 22.9 µg/mL)
- MIC [13]: 4 µM (≈ 11.4 µg/mL)
- MIC [14]: > 64 µM
- MIC [15]: > 64 µM
- MIC [16]: 2 µM (≈ 5.72 µg/mL)

Structure (SMILES): CC[C@H](C)[C@H](NC(=O)[C@H](C)NC(=O)CNC(=O)[C@H](CC(C)C)NC(=O)[C@@H](N)Cc1ccccc1)C(=O)N[C@@H](CC(C)C)C(=O)N[C@@H](CCCCN)C(=O)N[C@H](C(=O)NCC(=O)N[C@@H](Cc1cnc[nH]1)C(=O)N[C@@H](C)C(=O)N[C@@H](CC(C)C)C(=O)N[C@@H](C)C(=O)N[C@@H](CCCCN)C(=O)N[C@H](C(=O)N[C@H](C(=O)N[C@@H](CC(C)C)C(=O)N1CCC[C@H]1C(=O)N[C@@H](CCSC)C(=O)N[C@H](C(=O)N[C@H](C(=O)N[C@@H](CC(N)=O)C(=O)N[C@@H](C)C(=O)N[C@@H](Cc1ccccc1)C(=O)N[C@@H](CCCCN)C(=O)N1CCC[C@H]1C(=O)N[C@@H](CCCCN)C(=O)N[C@@H](CCC(N)=O)C(=O)O)[C@@H](C)O)C(C)C)C(C)C)[C@@H](C)O)[C@@H](C)CC [FLGAILKIGHALAKTVLPMVTNAFKPKQ]
- MIC [6]: 8 µM (≈ 24.1 µg/mL)
- MIC [34]: 32 µM (≈ 96.2 µg/mL)
- MIC [35]: 16 µM (≈ 48.1 µg/mL)
- MIC [36]: 4 µM (≈ 12 µg/mL)
- MIC [37]: 8 µM (≈ 24.1 µg/mL)
- MIC [24]: 8 µM (≈ 24.1 µg/mL)
- MIC [15]: 4 µM (≈ 12 µg/mL)
- MIC [38]: 8 µM (≈ 24.1 µg/mL)

Structure (SMILES): CC[C@H](C)[C@H](NC(=O)[C@@H](N)Cc1ccccc1)C(=O)NCC(=O)N[C@H](C(=O)N[C@@H](CC(C)C)C(=O)N[C@H](C(=O)N1CCC[C@H]1C(=O)N[C@@H](CC(C)C)C(=O)N[C@@H](C)C(=O)N[C@@H](CC(C)C)C(=O)NCC(=O)N[C@@H](C)C(=O)N[C@@H](CC(C)C)C(=O)N[C@H](C(=O)N[C@@H](CCCCN)C(=O)N[C@@H](CC(C)C)C(=O)N[C@@H](Cc1ccccc1)C(=O)N[C@@H](CCCCN)C(N)=O)[C@@H](C)O)[C@@H](C)CC)[C@@H](C)O [FIGTLIPLALGALTKLFK]
- MIC [6]: 8 µM (≈ 15.3 µg/mL)
- MIC [36]: 16 µM (≈ 30.6 µg/mL)
- MIC [37]: 16 µM (≈ 30.6 µg/mL)
- MIC [24]: 4 µM (≈ 7.66 µg/mL)
- MIC [15]: 2 µM (≈ 3.83 µg/mL)
- MIC [38]: 4 µM (≈ 7.66 µg/mL)

The next lines start with the values.

- MIC [1]: 13.6 µM (≈ 25 µg/mL)
- MIC [2]: 27.3 µM (≈ 50 µg/mL)
- MIC [3]: 13.6 µM (≈ 25 µg/mL)
- MIC [4]: 13.6 µM (≈ 25 µg/mL)
- MIC [5]: ≥ 218 µM
Structure (SMILES): CC[C@H](C)[C@H](NC(=O)[C@H](CCCCN)NC(=O)[C@@H](N)CCCN=C(N)N)C(=O)N[C@@H](CCCCN)C(=O)N[C@@H](CCCN=C(N)N)C(=O)N[C@@H](Cc1ccc(O)cc1)C(=O)N[C@@H](CC(C)C)C(=O)N[C@@H](CCCN=C(N)N)C(=O)N[C@@H](CCCN=C(N)N)C(=O)N[C@@H](CCSC)C(=O)N[C@H](C(=O)N[C@H](C(=O)N[C@@H](Cc1c[nH]c2ccccc12)C(=O)O)[C@@H](C)CC)[C@@H](C)CC [RKIKRYLRRMIIW]

- MIC [6]: 20.2 µM (≈ 32 µg/mL)
- MIC [17]: 20.2 µM (≈ 32 µg/mL)
- MIC [18]: ≥ 40.4 µM
- MIC [19]: ≥ 40.4 µM
- MIC [20]: 20.2 µM (≈ 32 µg/mL)
- MIC [10]: 10.1 µM (≈ 16 µg/mL)
- MIC [21]: 1.26 µM (≈ 2 µg/mL)
- MIC [22]: 2.53 µM (≈ 4 µg/mL)
- MIC [23]: 1.26 µM (≈ 2 µg/mL)
- MIC [24]: > 40.4 µM
- MIC [25]: 10.1 µM (≈ 16 µg/mL)
Structure (SMILES): CC[C@H](C)[C@H](NC(=O)[C@H](CCCN=C(N)N)NC(=O)[C@H](CS)NC(=O)[C@H](CC(C)C)NC(=O)[C@@H](N)CCCN=C(N)N)C(=O)N[C@H](C(=O)N1CCC[C@H]1C(=O)N[C@H](C(=O)N[C@H](C(=O)N[C@@H](CCCN=C(N)N)C(=O)N[C@H](C(=O)N[C@@H](CS)C(=O)N[C@@H](CCCN=C(N)N)C(=O)O)C(C)C)[C@@H](C)CC)C(C)C)C(C)C [RLCRIVPVIRVCR]

- MIC [26]: 21.9 µM (≈ 64 µg/mL)
- MIC [27]: 2.73 µM (≈ 8 µg/mL)
- MIC [28]: 5.47 µM (≈ 16 µg/mL)
- MIC [29]: 5.47 µM (≈ 16 µg/mL)
- MIC [30]: 2.73 µM (≈ 8 µg/mL)
- MIC [31]: 5.47 µM (≈ 16 µg/mL)
- MIC [32]: 2.73 µM (≈ 8 µg/mL)
- MIC [33]: 2.73 µM (≈ 8 µg/mL)
Structure (SMILES): CC[C@H](C)[C@H](NC(=O)[C@H](CC(C)C)NC(=O)[C@H](C)NC(=O)[C@@H]1CCCN1C(=O)[C@H](CC(C)C)NC(=O)[C@H](C)NC(=O)[C@@H](NC(=O)[C@@H](NC(=O)[C@@H](NC(=O)[C@@H](NC(=O)[C@H](CCCCN)NC(=O)[C@H](CCCCN)NC(=O)[C@H](CC(C)C)NC(=O)[C@@H](NC(=O)[C@H](CCCCN)NC(=O)[C@@H](NC(=O)[C@H](CC(C)C)NC(=O)[C@H](CC(N)=O)NC(=O)[C@H](CCCCN)NC(=O)[C@@H](NC(=O)[C@H](Cc1ccccc1)NC(=O)[C@H](CO)NC(=O)[C@H](CCCCN)NC(=O)[C@H](Cc1c[nH]c2ccccc12)NC(=O)[C@@H](N)CCCCN)[C@@H](C)CC)[C@@H](C)O)C(C)C)C(C)C)C(C)C)[C@@H](C)O)[C@@H](C)O)C(=O)N[C@@H](CO)C(=O)O [KWKSFIKNLTKVLKKVVTTALPALIS]

- MIC [6]: 10.9 µM (≈ 16 µg/mL)
- MIC [17]: 5.44 µM (≈ 7.99 µg/mL)
- MIC [18]: ≥ 43.5 µM
- MIC [19]: 5.44 µM (≈ 7.99 µg/mL)
- MIC [20]: 10.9 µM (≈ 16 µg/mL)
- MIC [10]: 2.72 µM (≈ 4 µg/mL)
- MIC [21]: 0.34 µM (≈ 0.5 µg/mL)
- MIC [22]: 0.34 µM (≈ 0.5 µg/mL)
- MIC [23]: 0.34 µM (≈ 0.5 µg/mL)
- MIC [24]: 10.9 µM (≈ 16 µg/mL)
- MIC [25]: 1.36 µM (≈ 2 µg/mL)
Structure (SMILES): CC[C@H](C)[C@H](NC(=O)[C@H](CCCN=C(N)N)NC(=O)[C@H](CO)NC(=O)[C@H](CC(C)C)NC(=O)[C@@H](N)CCCN=C(N)N)C(=O)N[C@H](C(=O)N[C@H](C(=O)N[C@H](C(=O)N[C@@H](CCCN=C(N)N)C(=O)N[C@H](C(=O)N[C@@H](CS)C(=O)N[C@@H](CCCN=C(N)N)C(N)=O)C(C)C)[C@@H](C)CC)C(C)C)C(C)C [RLSRIVVIRVCR]
